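Each compound was tested at five concentrations against cells in 96-well plates for 48 hours. GI50 marks 50% less growth.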 Active and inactive are the calls of the source. Cut-off read from the data, not from the text of the source: active = GI50 up to about 1.1 µM and inactive = higher.

Holding throughout (assay): NCI anticancer screen, dose series, 48 h
The test system of experiment [1] is 786-0.
In experiment [2] the test system is A549.
Experiment [3] relates to HCT-15.
The test system of experiment [4] is HL-60.
Experiment [5] has as its system HOP-62.
Experiment [6] concerns HOP-92.
For experiment [7], the system named is Hs-578T.
Experiment [8] relates to IGROV-1.
Experiment [9] has as its system KM12.
Experiment [10] relates to MDA-MB-435.
Experiment [11] concerns Malme-3M.
Experiment [12] concerns NCI-H460.
The test system of experiment [13] is OVCAR-4.
Experiment [14] concerns RXF 393.
In experiment [15] the test system is SK-MEL-2.
In experiment [16] the test system is SK-MEL-5.
Experiment [17] deals with TK-10.
Experiment [18] relates to U-251.
For experiment [19], the system named is EKVX.
In experiment [20] the test system is OVCAR-5.

With `CC(C)CCCC(C)[C@H]1CC[C@H]2N/C(=N/Cc3ccccc3)CCC[C@]12C` (some centres undefined), the GI50 in experiment [1] was 2 µM (inactive); in [2], 1.83 µM (inactive); in experiment [3] it was 1.67 µM; in experiment [4], 2.11 µM (inactive); in experiment [5], 2.46 µM (inactive); in [6] it was 2.09 µM (inactive). Also, the GI50 was 3.37 µM (inactive) in [7]; 1.74 µM (inactive) in experiment [8]; 1.88 µM (inactive) in [9]; 1.64 µM (inactive) in experiment [10]; 1.97 µM (inactive) in experiment [11]; 1.66 µM (inactive) in [12]. The GI50 in experiment [13] is 1.98 µM (inactive); in experiment [14], 1.53 µM (inactive); in experiment [15] it was 1.97 µM (inactive); in [16] it was 1.58 µM (inactive); in experiment [17], 2.08 µM (inactive); in [18], 1.78 µM (inactive).
As for `C/C=C/C=C/C1=NN(c2cccc(S(=O)(=O)O)c2)C2(C1)SCC(=O)N2c1nc2ccccc2s1` (centres undefined), the GI50 was 19.8 µM (inactive) in experiment [1]; 86.3 µM (inactive) in experiment [2]; 55.8 µM (inactive) in experiment [19]; 69.2 µM in experiment [3]; > 100 µM (inactive) in [4]; 26.2 µM (inactive) in experiment [6]. The GI50 is > 100 µM (inactive) in [7]; 19.7 µM (inactive) in [8]; 54.6 µM (inactive) in experiment [9]; 36.1 µM (inactive) in [10]; > 100 µM (inactive) in experiment [11]; 45.5 µM (inactive) in experiment [12]. Also, the GI50 is 93.3 µM (inactive) in experiment [13]; > 100 µM (inactive) in [20]; > 100 µM (inactive) in experiment [14]; 37.8 µM (inactive) in experiment [15]; 85.5 µM (inactive) in experiment [16]; 47.8 µM (inactive) in experiment [17]. Moreover, the GI50 in experiment [18] is 37.9 µM (inactive).
`Cc1cc(=O)nc(S(=O)(=O)NC(=S)Nc2ccc(Br)cc2)[nH]1`: the GI50 in experiment [1] was > 100 µM (inactive); in [19] it was 42.1 µM (inactive); in experiment [3] it was 75.9 µM; in experiment [4], > 100 µM (inactive); in [5] it was > 100 µM (inactive); in experiment [6] it was 21 µM (inactive). The GI50 in [7] was > 100 µM (inactive); in experiment [8], 73.1 µM (inactive); in [10], > 100 µM (inactive); in [11] it was > 100 µM (inactive); in experiment [12] it was > 100 µM (inactive); in experiment [13], 93.5 µM (inactive). The GI50 in [20] is > 100 µM (inactive); in [14], 20.5 µM (inactive); in experiment [15], > 100 µM (inactive); in experiment [16], > 100 µM (inactive); in experiment [17], > 100 µM (inactive); in experiment [18], > 100 µM (inactive).
Turning to `CNC(=O)C(C)NC(=O)C(Cc1ccccc1)NC(=O)OC(C)(C)C` (centres undefined), the GI50 in experiment [1] was > 100 µM (inactive); in experiment [2], > 100 µM (inactive); in experiment [19], > 100 µM (inactive); in experiment [3], above 100 µM; in experiment [4], > 100 µM (inactive); in [5], > 100 µM (inactive). The GI50 in [6], in experiment [7], in experiment [8], in experiment [9], in experiment [10] and in experiment [11] was > 100 µM (inactive) throughout. Also, the GI50 in experiment [12], in experiment [20], in experiment [14], in [15], in experiment [16] and in experiment [17] was > 100 µM (inactive) in each case. For the same compound, in [18], the GI50 is > 100 µM (inactive).
